Measured values from patent publication US20120231141A1, “BITTERNESS-IMPROVING AGENT FOR BITTER FOOD AND DRINK AND ASTRINGENCY-IMPROVING AGENT FOR ASTRINGENT FOOD AND DRINK” (priority 2009, published 2012).

Columns and labels:
[1] = Bitterness evaluation of carbonated water (flavor comparison by 10 panelists); type: in vivo; conditions: for A: the number of panelists who felt no difference from sedanenolide-free / B: the number of panelists who felt some reduction in bitterness / Flavor judgment: the number of panelists who judged it as most proper bitterness / N: the number of panelists who hardly felt bitterness: 10 panelists
Experimental: Sedanenolide was added as a bitterness-improving agent (masking agent for bitterness) of the present invention to sufficiently deaerated pure water at the concentrations shown in the following Table 4, and then carbon dioxide gas was sealed in each bottle at a pressure of 294 KPa to obtain carbonated water of the present invention.

[2] = Astringency evaluation of green tea drink (flavor comparison by 10 panelists); type: in vivo; conditions: for A: the number of panelists who felt no difference from sedanenolide-free / B: the number of panelists who felt some reduction in astringency / Flavor judgment: the number of panelists who judged it as most proper astringency / N: the number of panelists who hardly felt astringency: 10 panelists
Experimental: Five thousand grams of hot water (containing 0.03% of sodium ascorbate) of 95° C. was added to 100 g of domestic green tea (second picking tea), followed by extraction for 5 min while sometimes stirring. Subsequently, solid-liquid separation with flannel filter was performed to obtain 4500 g of an extract (Bx 0.7°). This extract was adjusted to Bx 0.5° with deionized water to obtain green tea extract having strong astringency. Sedanenolide was added as a taste-improving agent (masking agent for astringency) of the present invention to the resulting extract at the concentrations shown in the following Table 4 to obtain green tea drinks.

[3] = sedanenolide 0.01 ppb in carbonated water
[4] = sedanenolide 0.01 ppm in carbonated water
[5] = sedanenolide 0.1 ppb in carbonated water
[6] = sedanenolide 0.1 ppm in carbonated water
[7] = sedanenolide 1 ppb in carbonated water
[8] = sedanenolide 1 ppm in carbonated water
[9] = sedanenolide 1 ppt in carbonated water
[10] = sedanenolide 10 ppm in carbonated water
[11] = sedanenolide 0.01 ppb in green tea drink having strong astringency
[12] = sedanenolide 0.01 ppm in green tea drink having strong astringency
[13] = sedanenolide 0.1 ppb in green tea drink having strong astringency
[14] = sedanenolide 0.1 ppm in green tea drink having strong astringency
[15] = sedanenolide 1 ppb in green tea drink having strong astringency
[16] = sedanenolide 1 ppm in green tea drink having strong astringency
[17] = sedanenolide 1 ppt in green tea drink having strong astringency
[18] = sedanenolide 10 ppm in green tea drink having strong astringency

## CCCC[C@@H]1OC(=O)C2=C1CCC=C2 [sedanenolide]
[1]; amount of sedanenolide about 0.1 ppb to 1 ppm, carbonated water
  overall result of bitterness masking: particularly good results were obtained
[1]; carbonated water containing 0.01 ppb to 10 ppm of sedanenolide
  bitterness of carbonated water (judgment): masked
[1]; [3]
  A: the number of panelists who felt no difference from sedanenolide-free: 7
  B: the number of panelists who felt some reduction in bitterness: 3
  Flavor judgment: the number of panelists who judged it as most proper bitterness: 0
  N: the number of panelists who hardly felt bitterness: 0
[1]; sedanenolide 0.01 ppb, carbonated water
  reduction in bitterness at low concentration: some panelists felt some reduction in bitterness
[1]; [4]
  A: the number of panelists who felt no difference from sedanenolide-free: 2
  B: the number of panelists who felt some reduction in bitterness: 2
  Flavor judgment: the number of panelists who judged it as most proper bitterness: 1
  N: the number of panelists who hardly felt bitterness: 6
[1]; [5]
  A: the number of panelists who felt no difference from sedanenolide-free: 5
  B: the number of panelists who felt some reduction in bitterness: 5
  Flavor judgment: the number of panelists who judged it as most proper bitterness: 0
  N: the number of panelists who hardly felt bitterness: 0
[1]; [6]
  A: the number of panelists who felt no difference from sedanenolide-free: 0
  B: the number of panelists who felt some reduction in bitterness: 3
  Flavor judgment: the number of panelists who judged it as most proper bitterness: 4
  N: the number of panelists who hardly felt bitterness: 7
[1]; [7]
  A: the number of panelists who felt no difference from sedanenolide-free: 4
  B: the number of panelists who felt some reduction in bitterness: 6
  Flavor judgment: the number of panelists who judged it as most proper bitterness: 0
  N: the number of panelists who hardly felt bitterness: 0
[1]; [8]
  A: the number of panelists who felt no difference from sedanenolide-free: 0
  B: the number of panelists who felt some reduction in bitterness: 3
  Flavor judgment: the number of panelists who judged it as most proper bitterness: 5
  N: the number of panelists who hardly felt bitterness: 7
[1]; [9]
  A: the number of panelists who felt no difference from sedanenolide-free: 10
  B: the number of panelists who felt some reduction in bitterness: 0
  Flavor judgment: the number of panelists who judged it as most proper bitterness: 0
  N: the number of panelists who hardly felt bitterness: 0
[1]; [10]
  A: the number of panelists who felt no difference from sedanenolide-free: 0
  B: the number of panelists who felt some reduction in bitterness: 2
  Flavor judgment: the number of panelists who judged it as most proper bitterness: 0
  N: the number of panelists who hardly felt bitterness: 8
[2]; amount of sedanenolide about 0.1 ppb to 1 ppm, green tea drink
  overall result of astringency masking: particularly good results were obtained
[2]; green tea drink containing 0.01 ppb to 10 ppm of sedanenolide
  astringency of green tea drink (judgment): masked
[2]; [11]
  A: the number of panelists who felt no difference from sedanenolide-free: 8
  B: the number of panelists who felt some reduction in astringency: 2
  Flavor judgment: the number of panelists who judged it as most proper astringency: 0
  N: the number of panelists who hardly felt astringency: 0
[2]; sedanenolide 0.01 ppb, green tea drink having strong astringency
  reduction in bitterness at low concentration: some panelists felt some reduction in bitterness
[2]; [12]
  A: the number of panelists who felt no difference from sedanenolide-free: 3
  B: the number of panelists who felt some reduction in astringency: 6
  Flavor judgment: the number of panelists who judged it as most proper astringency: 2
  N: the number of panelists who hardly felt astringency: 1
[2]; [13]
  A: the number of panelists who felt no difference from sedanenolide-free: 6
  B: the number of panelists who felt some reduction in astringency: 3
  Flavor judgment: the number of panelists who judged it as most proper astringency: 0
  N: the number of panelists who hardly felt astringency: 1
[2]; [14]
  A: the number of panelists who felt no difference from sedanenolide-free: 0
  B: the number of panelists who felt some reduction in astringency: 3
  Flavor judgment: the number of panelists who judged it as most proper astringency: 5
  N: the number of panelists who hardly felt astringency: 7
[2]; [15]
  A: the number of panelists who felt no difference from sedanenolide-free: 5
  B: the number of panelists who felt some reduction in astringency: 5
  Flavor judgment: the number of panelists who judged it as most proper astringency: 0
  N: the number of panelists who hardly felt astringency: 0
[2]; [16]
  A: the number of panelists who felt no difference from sedanenolide-free: 0
  B: the number of panelists who felt some reduction in astringency: 3
  Flavor judgment: the number of panelists who judged it as most proper astringency: 3
  N: the number of panelists who hardly felt astringency: 7
[2]; [17]
  A: the number of panelists who felt no difference from sedanenolide-free: 10
  B: the number of panelists who felt some reduction in astringency: 0
  Flavor judgment: the number of panelists who judged it as most proper astringency: 0
  N: the number of panelists who hardly felt astringency: 0
[2]; [18]
  A: the number of panelists who felt no difference from sedanenolide-free: 0
  B: the number of panelists who felt some reduction in astringency: 2
  Flavor judgment: the number of panelists who judged it as most proper astringency: 0
  N: the number of panelists who hardly felt astringency: 8
